These compounds were tested against T1, BKB1 receptors (Homo sapiens, UniProt P46663) (assay: Calcium mobilization assay (FLIPR), B1 receptors in IMR-90 cells). Conditions: Human IMR-90 lung fibroblast cells, up-regulated BKB1 receptors, agonist desArg10-kallidin (DAKD) 2 to 8 nM, calcium-dependent fluorescence.
T1 construct: Human (IMR-90) lung fibroblast cells expressing native B1 receptors; endogenous in cells; host or cells: IMR-90 human lung fibroblasts, interleukin-treated to up-regulate BKB1 receptors
T1 sequence (P46663 1-353): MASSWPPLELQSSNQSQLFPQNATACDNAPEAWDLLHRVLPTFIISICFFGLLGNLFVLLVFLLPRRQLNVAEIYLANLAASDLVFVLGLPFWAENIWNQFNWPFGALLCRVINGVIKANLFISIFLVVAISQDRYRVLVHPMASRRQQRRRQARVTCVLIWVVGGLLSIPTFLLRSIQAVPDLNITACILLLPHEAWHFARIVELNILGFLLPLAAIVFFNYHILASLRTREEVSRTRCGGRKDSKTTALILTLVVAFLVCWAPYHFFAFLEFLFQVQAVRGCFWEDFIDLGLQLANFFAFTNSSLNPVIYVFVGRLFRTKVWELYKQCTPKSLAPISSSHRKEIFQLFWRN
Format: cell-based
Procedure: Calcium mobilization assay (FLIPR)—Human (IMR-90) lung fibroblast cells expressing native B1 receptors were harvested by trypsinization and seeded into black wall/clear bottom 96-well plates (Costar 3904; Corning Life Sciences, Acton, Mass.) at approximately 13,000 cells/well. After 1 day incubation, cells were treated with […] (0.35 ng/ml) in 10% FBS/MEM for 2 h to up-regulate BKB1 receptors. Induced cells were loaded with fluorescent calcium indicator by incubation with 2.3 μM Fluo-4/acetoxymethyl ester (Invitrogen) at 37° C. for 1.5 h in the presence of an anion transport inhibitor (2.5 mM probenecid in 1% FBS/MEM). Extracellular dye was removed by washing with assay buffer (2.5 mM probenecid, 0.1% BSA in 20 mM HEPES/HBSS without bicarbonate or phenol red, pH 7.5) and cell plates were kept in the dark until used. Test compounds were assayed at eight concentrations in triplicate. Addition of test compounds to the cell plate and incubation for 5 min at 35° C., followed by the addition of 2 to 8 nM final BK1 agonist desArg^10-kallidin (DAKD, 3×EC50) was carried out in the fluorimetric imaging plate reader (FLIPR; Molecular Devices) while continuously monitoring calcium-dependent fluorescence.

IC50 [µM]	Structure (SMILES)
7.76	CCNC(=O)C(C)c1cccc(Nc2cc(OC)cc(C(F)(F)F)c2)c1 (stereo not drawn) [Compound 56, N-ethyl-2-(3-{[3-methoxy-5-(trifluoromethyl)phenyl]amino}phenyl)propanamide]
6.17	CC(C(=O)Nc1ccncc1)c1ccc(Oc2cccc(F)c2)cc1 (stereo not drawn) [Compound 68, 2-[4-(3-fluroophenoxy)phenyl]-N-(pyridin-4-yl)propanamide]
1.38	CC(C)Cc1ccc(C(C)C(=O)Nc2ccncc2)cc1 (stereo not drawn) [Compound 37, 2-[4-(2-methylpropyl)phenyl]-N-(pyridin-4-yl)propanamide]
5.25	CC(C(=O)Nc1ccncc1)c1ccc(Nc2cnc3ccccc3c2)cc1 (stereo not drawn) [Compound 80, N-(pyridin-4-yl)-2-[4-(quinolin-3-ylamino)phenyl]propanamide]
14.5	COc1cc(Nc2cccc(C(C)C(=O)Nn3cccc3)c2)cc(C(F)(F)F)c1 (stereo not drawn) [Compound 53, 2-(3-{[3-methoxy-5-(trifluoromethyl)phenyl]amino}phenyl)-N-(1H-pyrrol-1-yl)propanamide]
16.6	CC(C(=O)NCCOc1ccc(F)cc1)c1cccc(OS(=O)(=O)C(F)(F)F)c1 (stereo not drawn) [Compound 20, 3-(1-{[2-(4-fluorophenoxy)ethyl]amino}-1-oxopropan-2-yl)phenyl trifluoromethanesulfonate]
21.9	C=C(C)CNC(=O)C(C)c1cccc(C(=O)c2cccs2)c1 (stereo not drawn) [Compound 23, N-(2-methylprop-2-en-1-yl)-2-[3-(thiophen-2-ylcarbonyl)phenyl]propanamide]
6.31	CC(C(=O)Nc1ccncn1)c1cccc(NC2CC2)c1 (stereo not drawn) [Compound 14, 2-[3-(cyclopropylamino)phenyl]-N-(pyrimidin-4-yl)propanamide]
6.17	Cc1ccnn1CCNC(=O)C(C)(F)c1ccc(OS(=O)(=O)C(F)(F)F)cc1 (stereo not drawn) [Compound 2, 4-(2-fluoro-1-{[2-(5-methyl-1H-pyrazol-1-yl)ethyl]amino}-1-oxopropan-2-yl)phenyl trifluoromethanesulfonate]
1	CC(C(=O)Nc1ccncc1)c1cccc(Nc2ccc(F)cc2)c1 (stereo not drawn) [Compound 74, 2-{3-[(4-fluorophenyl)amino]phenyl}-N-(pyridin-4-yl)propanamide]
9.77	Cc1cc(NC(=O)C(C)c2cccc(C(=O)c3ccccc3)c2)n(C)n1 (stereo not drawn) [Compound 36, N-(1,3-dimethyl-1H-pyrazol-5-yl)-2-[3-(phenylcarbonyl)phenyl]propanamide]
0.891	CC(C(=O)Nn1cnnc1)c1ccc(NS(=O)(=O)c2ccc(Cl)cc2)cc1 (stereo not drawn) [Compound 78, 2-(4-{[(4-chlorophenyl)sulfonyl]amino}phenyl)-N-(4H-1,2,4-triazol-4-yl) propanamide]
6.61	CC(=O)NCCNC(=O)C(C)c1ccc(Oc2cccc3ccccc23)cc1 (stereo not drawn) [Compound 66, N-[2-(acetylamino)ethyl]-2-[4-(naphthalen-1-yloxy)phenyl]propanamide]
14.1	CC(C(=O)Nc1ccncn1)c1ccc(N2CCCCC2)cc1 (stereo not drawn) [Compound 69, 2-[4-(piperidin-1-yl)phenyl]-N-(pyrimidin-4-yl)propanamide]
7.08	CCc1cc(NC(=O)C(C)c2ccc(Nc3nc(C(F)(F)F)co3)cc2)[nH]n1 (stereo not drawn) [Compound 29, N-(3-ethyl-1H-pyrazol-5-yl)-2-(4-{[4-(trifluoromethyl)-1,3-oxazol-2-yl]amino}phenyl)propanamide]
7.76	COc1cccc(CN(C)CCNC(=O)C(C)c2ccc(Nc3nc(C(F)(F)F)co3)cc2)c1 (stereo not drawn) [Compound 31, N-{2-[(3-methoxybenzyl)(methyl)amino]ethyl}-2-(4-{[4-(trifluoromethyl)-1,3-oxazol-2-yl]amino}phenyl)propanamide]
8.51	CC(C(=O)NC1CCCCC1)c1cccc(C(=O)c2ccccc2)c1 (stereo not drawn) [Compound 34, N-cyclohexyl-2-[3-(phenylcarbonyl)phenyl]propanamide]
10	CCn1nc(C)cc1NC(=O)C(C)c1ccc(Nc2nc(C(F)(F)F)cs2)cc1 (stereo not drawn) [Compound 41, N-(1-ethyl-3-methyl-1H-pyrazol-5-yl)-2-(4-{[4-(trifluoromethyl)-1,3-thiazol-2-yl]amino}phenyl)propanamide]
2.09	Cc1cc(NC(=O)C(C)c2ccc(CC(C)C)cc2)n(C)n1 (stereo not drawn) [Compound 40, N-(1,3-dimethyl-1H-pyrazol-5-yl)-2-[4-(2-methylpropyl)phenyl]propanamide]
17.8	CC(C)(C)NC(=O)CNC(=O)C(C)(C)c1ccc(OS(=O)(=O)C(F)(F)F)cc1 [Compound 6, 4-(2-methyl-1-{[2-(tert-butylamino)-2-oxoethyl]amino}-1-oxopropan-2-yl)phenyl trifluoromethanesulfonate]

IC50 [µM]	Structure (SMILES)
4.79	CC(C(=O)NCCC1CCCN1C)c1ccc(Oc2cccc3ccccc23)cc1 (stereo not drawn) [Compound 65, 2-[4-(naphthalen-1-yloxy)phenyl]-N-[2-(1-methylpyrrolidin-2-yl)ethyl]propanamide]
2.63	CCn1cc(NC(=O)C(C)c2ccc(C(=O)c3ccccc3)s2)c(C)n1 (stereo not drawn) [Compound 8, N-(1-ethyl-3-methyl-1H-pyrazol-4-yl)-2-[5-(phenylcarbonyl)thiophen-2-yl]propanamide]
3.39	CC(C(=O)Nc1ccncn1)c1ccc(Oc2ccc(F)cc2)cc1 (stereo not drawn) [Compound 72, 2-[4-(4-fluorophenoxy)phenyl]-N-(pyrimidin-4-yl)propanamide]
6.46	CC(F)(C(N)=O)c1ccc(OS(=O)(=O)C(F)(F)F)cc1 (stereo not drawn) [Compound 1, 4-(1-amino-2-fluoro-1-oxopropan-2-yl)phenyl trifluoromethanesulfonate]
2.09	CC(C(=O)NCC(C)(C)N)c1cccc(Oc2cccc(OC(F)(F)F)c2)c1 (stereo not drawn) [Compound 18]
10.2	CC(C(=O)Nc1nccs1)c1cccc(C(=O)c2ccccc2)c1 (stereo not drawn) [Compound 33, 2-[3-(phenylcarbonyl)phenyl]-N-(1,3-thiazol-2-yl)propanamide]
12	Cc1ccc(Cl)c(Nc2ccc(C(C)C(=O)NCCN3CCOCC3)cc2)c1Cl (stereo not drawn) [Compound 16, 2-{4-[(2,6-dichloro-3-methylphenyl)amino]phenyl}-N-[2-(morpholin-4-yl)ethyl]propanamide]
9.12	CC(C(=O)Nc1ccncn1)c1cccc(Nc2ccc(N3CCOCC3)cc2)c1 (stereo not drawn) [Compound 15, 2-(3-{[4-(morpholin-4-yl)phenyl]amino}phenyl)N-(pyrimidin-4-yl)propanamide]
11.2	Cc1cc(NC(=O)C(C)c2cccc(Oc3cccc(F)c3)c2)n(C)n1 (stereo not drawn) [Compound 11, N-(1,3-dimethyl-1H-pyrazol-5-yl)-2-[3-(3-fluorophenoxy)phenyl]propanamide]
12.6	CC(C(=O)Nc1ccc(Cc2ccncc2)cc1)c1ccc(OS(=O)(=O)C(F)(F)F)cc1 (stereo not drawn) [Compound 48, 4-{1-oxo-1-[4-(pyridin-4-ylmethyl)propan-2-yl]amino}phenyl trifluoromethanesulfonate]
4.47	CC(C(=O)Nc1ccncc1)c1ccc(Nc2ccc(F)cc2)cc1 (stereo not drawn) [Compound 71, 2-{4-[(4-fluorophenyl)amino]phenyl}-N-(pyridin-4-yl)propanamide]
8.51	CCCC/C=C/c1cccc(C(C)C(=O)Nc2ccncn2)c1 (stereo not drawn) [Compound 28, 2-{3-[hex-1-en-1-yl]phenyl}-N-(pyrimidin-4-yl)propanamide]
12.6	CC(C)Cc1ccc(C(C)C(=O)Nc2cc[n+](C)cn2)cc1 (stereo not drawn) [Compound 39, 1-methyl-4-({2-[4-(2-methylpropyl)phenyl]propanoyl}amino)pyrimidin-1-ium iodide]
3.24	CC(C(=O)Nc1ccncc1)c1ccc(OS(=O)(=O)C(F)(F)F)cc1 (stereo not drawn) [Compound 47, 4-[1-oxo-1-(pyridin-4-ylamino)propan-2-yl]phenyl trifluoromethanesulfonate]
8.51	CCCC/C=C/c1cccc(C(C)C(=O)NCCNC(C)C)c1 (stereo not drawn) [Compound 27, 2-{3-[hex-1-en-1-yl]phenyl}-N-[2-(propan-2-ylamino)ethyl]propanamide]
4.37	CC(C(=O)Nc1cnccn1)c1ccc(N2CCCCC2)cc1 (stereo not drawn) [Compound 77, 2-[4-(piperidin-1-yl)phenyl]-N-(pyrazin-2-yl)propanamide]
12.9	CC(C(=O)NC(c1ccco1)N1CCOCC1)c1ccc(Nc2nc(C(F)(F)F)cs2)cc1 (stereo not drawn) [Compound 43, N-[furan-2-yl(morpholin-4-yl)methyl]-2-(4-{[4-(trifluoromethyl)-1,3-thiazol-2-yl]amino}phenyl)propanamide]
7.94	COc1cccc(Nc2ccc(C(C)C(=O)Nc3cc(C)nn3C)cc2)c1 (stereo not drawn) [Compound 10]
9.12	CC(C(=O)Nc1nc(C(C)(C)C)cs1)c1ccc(NS(=O)(=O)C(C)C)cc1 (stereo not drawn) [Compound 21, 2-{4-[(propan-2-ylsulfonyl)amino]phenyl}-N-(4-tert-butyl-1,3-thiazol-2-yl)propanamide]
